Here are results for one compound from PubChem BioAssay (NCI).

Among the test systems are NCI-H460 lung; BT-549 breast; MDA-N; ACHN renal; SF-268 CNS; T-47D breast; HS 578T breast; SF-539 CNS; MCF7 breast; A498 renal; HOP-92 NSCLC; HL-60(TB) leukemia; SW-620 colon; RXF 393 renal; COLO 205 colon; OVCAR-4 ovarian; MALME-3M melanoma; SK-OV-3 ovarian; HOP-62 NSCLC; OVCAR-8 ovarian.
What all share (experiment): inhibition of tumour cell growth, NCI panel, 48 h

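48-hour exposure; five concentrations; linearly interpolated endpoints. TGI denotes the concentration required for complete inhibition of growth.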

As to `O=C(c1ccco1)C1CC(c2c(O)ccc3ccccc23)=NN1` (stereo not given), the TGI was 19.9 µM with NCI-H460 lung; 31 µM in the test on BT-549 breast; 36.4 µM in the test with MDA-N; 25 µM with ACHN renal; 30.2 µM in the test on SF-268 CNS; 50.5 µM in the test on T-47D breast. In addition, the TGI with HS 578T breast came out at 46.3 µM; in the test with SF-539 CNS it was 26.7 µM; in the test on MCF7 breast, 22 µM; in the test with A498 renal it was 40.4 µM; in the test with HOP-92 NSCLC, 37.4 µM; with HL-60(TB) leukemia, 53.8 µM. Also, the TGI was 31 µM in the test on SW-620 colon; 50 µM in the test on RXF 393 renal; 21.7 µM in the test on COLO 205 colon; over 100 µM in the test on OVCAR-4 ovarian; 37.9 µM in the test on MALME-3M melanoma; 56.6 µM in the test with SK-OV-3 ovarian. For the same compound, the results for the TGI in the test with HOP-62 NSCLC and in the test on OVCAR-8 ovarian were 27.3 µM and 51.5 µM, respectively.
